We go through 9 molecules from patent publication US9944598B2, “Mono- or di-substituted indole derivatives as dengue viral replication inhibitors” (priority 2014, dated 2018).

The structures appear in SMILES notation.

By CC50 is commonly meant the concentration giving 50% cytotoxicity. Broadly, the EC50 is the concentration needed to bring the measured effect to its halfway point.

Holding throughout (assay type): cell-based
The nature of data set [1]: in vitro. Particulars: African green monkey, CC50. The method, then:
In parallel, the toxicity of the compounds was assessed on the same plates. Once the read-out for the eGFP signal was done, 10 μL of resazurin, a cell viability stain, was added to all wells of the 384-well plates. The resazurin assay is based on the reduction of the blue resazurin by NADH, produced by the cells, into the highly fluorescent product, resorufin. The formation of pink fluorescent resorufin is directly related to the number of viable cells in the well. The plates were incubated for an additional 5 hours in a fully humidified incubator (37° C., 5% CO2). Next, the plates were measured on an Infinite reader (Tecan) using an excitation wavelength of 530 nm. The half maximal cytotoxic concentration (CC50) was also determined, defined as the concentration required to reduce the resazurin conversion by 50% compared to that of the cell control wells (Table 1). Finally, the selectivity index (SI) is determined for the compounds, which is calculated as followed: SI=CC50/EC50.

Data set [2] has as its system DENV-4 strain EDEN (SG/06K2270DK1/2005). Kind of data set: Tetravalent RT-qPCR assay Protocol A, serotype 4 EDEN. Particulars: Dengue virus, DENV4, 72 h, RT-qPCR serotype 4 EDEN, Vero cells, 3 days. The method, then:
(§1) The antiviral activity of the compounds of the invention was tested against DENV-1 strain TC974#666 (NCPV), DENV-2 strain 16681, DENV-3 strain H87 (NCPV) and DENV-4 strains H241 (NCPV) and EDEN (SG/06K2270DK1/2005; GenBank accession number QG398256) in a RT-qPCR assay. Therefore, Vero cells were infected with either DENV-1, or -2, or -3, or -4 in the presence or absence of test compounds. At day 3 post-infection, the cells were lysed and cell lysates were used to prepare cDNA of both a viral target (the 3′UTR of DENV; table 2) and a cellular reference gene (β-actin, table 2). Subsequently, a duplex real time PCR was performed on a Lightcycler480 instrument. The generated Cp value is inversely proportional to the amount of RNA expression of these targets. Inhibition of DENV replication by a test compound result in a shift of Cp's for the 3′UTR gene. On the other hand, if a test compound is toxic to the cells, a similar effect on β-actin expression will be observed. The comparative ΔΔCp method is used to calculate EC50, which is based on the relative gene expression of the target gene (3′UTR) normalized with the cellular housekeeping gene (β-actin). In addition, CC50 values were determined based on the Cp values acquired for the housekeeping gene β-actin.
(§2) The culture medium consisted of minimal essential medium supplemented with 2% of heat-inactivated fetal calf serum, 0.04% gentamycin (50 mg/mL) and 2 mM of L-glutamine. Vero cells, obtained from ECACC, were suspended in culture medium and 75 μL/well was added in 96-well plates (10000 cells/well), which already contain the antiviral compounds. Typically, these plates contain a 4-fold serial dilution of 9 dilution steps of the test compound at 200 times the final concentration in 100% DMSO (500 nL; final concentration range: 25 μM-0.00038 μM). In addition, each plate contains wells which are assigned as virus controls (containing cells and virus in the absence of compound) and cell controls (containing cells in the absence of virus and compound). Once the cells were added in the plates, the plates were incubated in a fully humidified incubator (37° C., 5% CO2) until the next day. Then, DENV-1 strain TC974#666, DENV-2 strain 16681, DENV-3 strain H87 or DENV-4 strains H241 or EDEN were added. […] In parallel, 25 μL of culture medium was added to the cell controls. Next, the plates were incubated for 3 days in a fully humidified incubator (37° C., 5% CO2). After 3 days, the supernatant was removed from the wells and the cells were washed twice with ice-cold PBS (˜100 μL). The cell pellets within the 96-well plates were stored at −80° C. for at least 1 day. Next, RNA was extracted using the Cells-to-CT™ lysis kit, according to the manufacture's guideline (Applied Biosystems). The cell lysates can be stored at −80° C. or immediately used in the reverse transcription step.
(§3) In preparation of the reverse transcription step, mix A (table 3A) was prepared and 7.57 μL/well was dispensed in a 96-well plate. After addition of 5 μL of the cell lysates, a five minute denaturation step at 75° C. was performed (table 3B). Afterwards, 7.43 μL of mix B was added (table 3C) and the reverse transcription step was initiated (table 3D) to generate cDNA.
(§4) Finally, a RT-qPCR mix was prepared, mix C (table 4A), dispensed in 96-well LightCycler qPCR plates to which 3 μL of cDNA was added and the qPCR was performed according to the conditions in table 4B on a LightCycler 480.
(§5) Using the LightCycler software and an in-house LIMS system, dose response curves for each compound were calculated and the half maximal effective concentration (EC50) and the half maximal cytotoxic concentration (CC50) were determined (Tables 6-9).
In general terms: Real-time PCR tracks product formation cycle by cycle.

Another data set concerns DENV-2 strain 16681. Kind of data set: Tetravalent RT-qPCR assay Protocol A, serotype 2. Particulars: Dengue virus, DENV2, 72 h, RT-qPCR serotype 2 16681, Vero cells, 3 days. Here is the method: as §1, §2, §3, §4, §5
The nature of data set [3]: in vitro. As to conditions: African green monkey, CC50. The method, then:
(§6) Potential cytotoxic effects of the compounds were evaluated in uninfected Vero cells. Cells were seeded at 4×10^4 cells/well in a 96-well plate in the presence of two-, three- or five-fold serial dilutions (ranging from 50 μg/mL-0.0038 μg/mL, 50 μg/mL-0.0076 μg/mL, and 50 μg/mL-0.00013 μg/mL, respectively) of compound and incubated for 4 to 7 days. Culture medium was discarded and 100 μL 3-(4,5-dimethylthiazol-2-yl)-5-(3-carboxymethoxyphenyl)-2-(4-sulfophenyl)-2H-tetrazolium/phenazinemethosulfate (MTS/PMS; Promega, Leiden, The Netherlands) in PBS was added to each well. Following a 2-hour incubation period at 37° C., the optical density was determined at 498 nm. Cytotoxic activity was calculated using the following formula: % cell viability=100×(ODCompound/ODCC), where ODCompound and ODCC correspond to the optical density at 498 nm of the uninfected cell cultures treated with compound and that of uninfected, untreated cell cultures, respectively. The 50% cytotoxic concentration (i.e., the concentration that reduces the total cell number with 50%; CC50) was calculated using linear interpolation (Tables 7 and 8).
This is another data set of the same source.

The next data set has as its system uninfected Vero cells. Kind of data set: in vitro. As to conditions: African green monkey. Here is the method: as §6
In the next data set the test system is DENV-1 strain TC974#666. Kind of data set: Tetravalent RT-qPCR assay Protocol A, serotype 1. Particulars: Dengue virus, DENV1, 72 h, RT-qPCR serotype 1 TC974#666, Vero cells, 3 days. Here is the method: as §1, §2, §3, §4, §5
Another data set concerns DENV-4 strain H241. Kind of data set: Tetravalent RT-qPCR assay Protocol A, serotype 4 H241. As to conditions: Dengue virus, DENV4, 72 h, RT-qPCR serotype 4 H241, Vero cells, 3 days. The method, then: as §1, §2, §3, §4, §5
Data set [4] in a line: in vitro. Particulars: African green monkey. Here is the method: as §1, §2, §5

Turning to `COc1cc(NC(C(=O)c2c[nH]c3cc(F)ccc23)c2ccc(Cl)cc2OC)cc(OCCO)c1` (single isomer, unassigned) [Compound 1A, 2-(4-chloro-2-methoxyphenyl)-1-(6-fluoro-1H-indol-3-yl)-2-((3-(2-hydroxyethoxy)-5-methoxyphenyl)amino)ethanone], the CC50 came out at 4300 nM in the data set “in vitro [1]”, 9700 nM in “in vitro [3]” and 14000 nM in the data set with uninfected Vero cells. Besides, the EC50 came to 6.2 nM in data set [2], 1.1 nM in the data set on DENV-2 strain 16681, 7.7 nM with DENV-1 strain TC974#666 and 240 nM in the data set on DENV-4 strain H241.

With `COc1cc(NC(C(=O)c2c[nH]c3c(C)c(F)ccc23)c2ccc(Cl)cc2OC)cc(OCCO)c1` (single isomer, unassigned) [Compound 2A, 2-(4-chloro-2-methoxyphenyl)-1-(6-fluoro-7-methyl-1H-indol-3-yl)-2-((3-(2-hydroxyethoxy)-5-methoxyphenyl)amino)ethanone], the CC50 in the data set “in vitro [1]” amounted to 4200 nM; in “in vitro [3]”, 7400 nM; in the data set with uninfected Vero cells, 13000 nM. Further, the EC50 stood at 4.3 nM in data set [2], 0.85 nM in the data set with DENV-2 strain 16681, 7.1 nM with DENV-1 strain TC974#666 and 260 nM with DENV-4 strain H241.

In the case of `COc1cc(NC(C(=O)c2c[nH]c3c(C)c(Cl)ccc23)c2ccc(Cl)cc2OC)cc(OCCO)c1` (single isomer, unassigned) [Compound 3A, 2-(4-chloro-2-methoxyphenyl)-1-(6-chloro-7-methyl-1H-indol-3-yl)-2-((3-(2-hydroxyethoxy)-5-methoxyphenyl)amino)ethanone], the results for the CC50 in “in vitro [1]”, in the data set “in vitro [3]” and in the data set with uninfected Vero cells were 4500 nM, 7700 nM and 12000 nM, respectively. The same molecule had a CC50 at 3 days in the data set “in vitro [4]” of 3800 nM. For the same molecule, the EC50 in data set [2] turned out to be 2.9 nM; in the data set on DENV-2 strain 16681, 0.24 nM; in the data set with DENV-1 strain TC974#666 it was 5.3 nM; in the data set with DENV-4 strain H241 it was 180 nM.

On to `COc1cc(NC(C(=O)c2c[nH]c3cc(Cl)ccc23)c2ccc(Cl)cc2OC)cc(OCCO)c1` (single isomer, unassigned) [Compound 4A, 1-(6-chloro-1H-indol-3-yl)-2-(4-chloro-2-methoxyphenyl)-2-((3-(2-hydroxyethoxy)-5-methoxyphenyl)amino)ethanone], for which the CC50 in “in vitro [1]” was 4900 nM; in the data set “in vitro [3]” it was 9500 nM; in the data set with uninfected Vero cells, 13000 nM. In addition, the EC50 was determined as 5.2 nM in data set [2], 0.44 nM with DENV-2 strain 16681, 7.8 nM in the data set on DENV-1 strain TC974#666 and 240 nM with DENV-4 strain H241.

With `COc1cc(NC(C(=O)c2c[nH]c3cc(OC)ccc23)c2ccc(Cl)cc2OC)cc(OCCO)c1` (single isomer, unassigned) [Compound 5A, 2-(4-chloro-2-methoxyphenyl)-2-((3-(2-hydroxyethoxy)-5-methoxyphenyl)amino)-1-(6-methoxy-1H-indol-3-yl)ethanone], the CC50 in the data set “in vitro [1]” was 5900 nM; in the data set “in vitro [3]” it was 7800 nM; in the data set on uninfected Vero cells, 11000 nM. This molecule gave a CC50 at 3 days in “in vitro [4]” of 5200 nM. The half-maximal effective concentration (EC50) is 4.6 nM in data set [2], 0.5 nM with DENV-2 strain 16681, 13 nM with DENV-1 strain TC974#666 and 320 nM in the data set with DENV-4 strain H241.

For `COc1cc(NC(C(=O)c2c[nH]c3cc(OC)c(C)cc23)c2ccc(Cl)cc2OC)cc(OCCO)c1` (single isomer, unassigned) [Compound 6A, 2-(4-chloro-2-methoxyphenyl)-2-((3-(2-hydroxyethoxy)-5-methoxyphenyl)amino)-1-(6-methoxy-5-methyl-1H-indol-3-yl)ethanone], the CC50 stood at 5100 nM in “in vitro [1]”, 8100 nM in “in vitro [3]” and 13000 nM in the data set with uninfected Vero cells. For the same molecule, the EC50 in data set [2] was 2.9 nM; in the data set on DENV-2 strain 16681, 0.54 nM; with DENV-1 strain TC974#666 it was 3.6 nM; with DENV-4 strain H241, 84 nM.

Turning to `COc1cc(NC(C(=O)c2c[nH]c3cc(OC)c(F)cc23)c2ccc(Cl)cc2OC)cc(OCCO)c1` (single isomer, unassigned) [Compound 7A, 2-(4-chloro-2-methoxyphenyl)-1-(5-fluoro-6-methoxy-1H-indol-3-yl)-2-((3-(2-hydroxyethoxy)-5-methoxyphenyl)amino)ethanone], the CC50 in the data set “in vitro [1]” came out at 6100 nM; in the data set “in vitro [3]” it was 7200 nM; in the data set on uninfected Vero cells it was 12000 nM. In “in vitro [4]”, this molecule had a CC50 at 3 days of 4600 nM. For the same molecule, the EC50 in data set [2] worked out at 6.6 nM; in the data set on DENV-2 strain 16681 it was 0.91 nM; in the data set with DENV-1 strain TC974#666, 16 nM; with DENV-4 strain H241, 230 nM.

As to `COc1cc(NC(C(=O)c2c[nH]c3c(C)cc(F)cc23)c2ccc(Cl)cc2OC)cc(OCCO)c1` (single isomer, unassigned) [Compound 8A, 2-(4-chloro-2-methoxyphenyl)-1-(5-fluoro-7-methyl-1H-indol-3-yl)-2-((3-(2-hydroxyethoxy)-5-methoxyphenyl)amino)ethanone], the CC50 was 4200 nM in “in vitro [1]”, 7700 nM in “in vitro [3]” and 11000 nM in the data set on uninfected Vero cells. Besides, the midpoint of cytotoxicity in the data set “in vitro [4]”, the CC50 at 3 days, lay at 3500 nM. The EC50 amounted to 6.5 nM in data set [2], 1.2 nM in the data set with DENV-2 strain 16681, 9.6 nM with DENV-1 strain TC974#666 and 300 nM in the data set on DENV-4 strain H241.

As to `COc1cc(NC(C(=O)c2c[nH]c3c(F)c(F)ccc23)c2ccc(Cl)cc2OC)cc(OCCO)c1` (single isomer, unassigned) [Compound 11B, 2-(4-chloro-2-methoxyphenyl)-1-(6,7-difluoro-1H-indol-3-yl)-2-((3-(2-hydroxyethoxy)-5-methoxyphenyl)amino)ethanone], the CC50 at 3 days in “in vitro [4]” stood at 3700 nM. In addition, the half-maximal effective concentration (EC50) in data set [2] was determined as 9.8 nM; with DENV-2 strain 16681, 1 nM; with DENV-1 strain TC974#666 it was 18 nM; in the data set with DENV-4 strain H241 it was 350 nM. Besides, the CC50 in the data set “in vitro [3]” was found to be 7700 nM; with uninfected Vero cells it was 11000 nM.
